Experimental data as given in ChEMBL document CHEMBL5532747, “Potent, Selective, and Orally Bioavailable Quinazoline-Based STK17A/B Dual Inhibitors” (ACS Med Chem Lett, 2024).

Key:
[1] = Microsomal stability in mouse liver microsomes assessed as half life; format: ADME, Microsome
[2] = Microsomal stability in human liver microsomes assessed as half life; format: ADME, Microsome
CYP1A2 = target: T1, CYP1A2 (Homo sapiens, UniProt P05177); assay: Inhibition of CYP1A2 (unknown origin) using phenacetin as substrate at 10 uM by cocktail based assay relative to control; format: ADME; details: probe phenacetin
T1 sequence (P05177 whole entry): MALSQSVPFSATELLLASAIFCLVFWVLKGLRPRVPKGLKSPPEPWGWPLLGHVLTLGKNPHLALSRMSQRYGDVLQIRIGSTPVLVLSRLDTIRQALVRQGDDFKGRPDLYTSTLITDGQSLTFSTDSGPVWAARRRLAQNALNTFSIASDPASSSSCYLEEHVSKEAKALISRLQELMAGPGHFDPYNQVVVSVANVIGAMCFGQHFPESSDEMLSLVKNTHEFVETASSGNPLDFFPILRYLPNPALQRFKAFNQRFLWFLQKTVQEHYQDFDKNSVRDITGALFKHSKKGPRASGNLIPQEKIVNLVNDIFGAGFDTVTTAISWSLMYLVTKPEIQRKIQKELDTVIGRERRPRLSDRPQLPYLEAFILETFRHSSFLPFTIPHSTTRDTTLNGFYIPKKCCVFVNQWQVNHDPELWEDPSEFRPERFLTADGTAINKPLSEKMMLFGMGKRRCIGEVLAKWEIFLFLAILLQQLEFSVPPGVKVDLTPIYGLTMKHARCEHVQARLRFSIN

CYP2C9 = CYP2C9 (Homo sapiens, UniProt P11712); assay: Inhibition of CYP2C9 (unknown origin) using tolbutamide as substrate at 10 uM by cocktail based assay relative to control; format: ADME; details: probe tolbutamide
Sequence of CYP2C9 (P11712 whole entry): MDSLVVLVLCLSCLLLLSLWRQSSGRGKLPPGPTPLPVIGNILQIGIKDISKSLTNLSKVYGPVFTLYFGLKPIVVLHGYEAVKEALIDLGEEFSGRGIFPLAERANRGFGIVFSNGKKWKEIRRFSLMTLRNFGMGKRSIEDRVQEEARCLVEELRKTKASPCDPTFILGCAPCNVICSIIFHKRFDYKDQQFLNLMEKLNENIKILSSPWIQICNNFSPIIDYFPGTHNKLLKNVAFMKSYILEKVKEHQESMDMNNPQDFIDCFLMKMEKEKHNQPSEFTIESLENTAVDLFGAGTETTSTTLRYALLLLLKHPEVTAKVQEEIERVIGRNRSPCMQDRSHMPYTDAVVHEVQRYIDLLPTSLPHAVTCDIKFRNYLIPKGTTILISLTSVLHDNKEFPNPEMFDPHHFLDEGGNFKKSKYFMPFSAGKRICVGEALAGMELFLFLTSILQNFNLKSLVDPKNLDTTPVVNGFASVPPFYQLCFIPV

[3] = target: T2, Myosin light chain kinase family member 4 (Homo sapiens, UniProt Q86YV6); assay: Inhibition of MYLK4 (unknown origin) in presence of ATP
T2 sequence (Q86YV6 whole entry): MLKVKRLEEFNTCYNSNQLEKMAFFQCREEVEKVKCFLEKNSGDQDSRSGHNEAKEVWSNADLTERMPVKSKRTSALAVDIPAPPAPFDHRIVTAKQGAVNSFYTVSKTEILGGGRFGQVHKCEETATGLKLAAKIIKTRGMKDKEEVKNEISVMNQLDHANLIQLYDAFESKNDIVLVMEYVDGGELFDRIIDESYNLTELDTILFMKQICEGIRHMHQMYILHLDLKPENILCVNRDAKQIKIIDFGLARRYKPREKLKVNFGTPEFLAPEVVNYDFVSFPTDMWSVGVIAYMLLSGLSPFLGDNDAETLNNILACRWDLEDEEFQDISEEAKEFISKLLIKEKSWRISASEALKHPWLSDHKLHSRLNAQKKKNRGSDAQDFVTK

[4] = target: T3, Serine/threonine-protein kinase 17A (Homo sapiens, UniProt Q9UEE5); assay: Inhibition of STK17A (unknown origin) in presence of ATP
T3 sequence (Q9UEE5 whole entry): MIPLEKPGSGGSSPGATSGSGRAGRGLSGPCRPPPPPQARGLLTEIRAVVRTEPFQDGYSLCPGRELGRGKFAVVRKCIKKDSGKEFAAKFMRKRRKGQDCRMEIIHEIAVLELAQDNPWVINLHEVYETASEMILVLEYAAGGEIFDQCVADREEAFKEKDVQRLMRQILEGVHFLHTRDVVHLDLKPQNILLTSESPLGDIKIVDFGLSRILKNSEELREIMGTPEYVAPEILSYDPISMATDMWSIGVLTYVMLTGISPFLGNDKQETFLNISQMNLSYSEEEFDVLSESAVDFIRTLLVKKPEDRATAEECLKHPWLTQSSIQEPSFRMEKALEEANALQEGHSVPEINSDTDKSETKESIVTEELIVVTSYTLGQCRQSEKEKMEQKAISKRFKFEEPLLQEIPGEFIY

CYP2D6 = CYP2D6 (Homo sapiens, UniProt P10635); assay: Inhibition of CYP2D6 (unknown origin) using bufuralol as substrate at 10 uM by cocktail based assay relative to control; format: ADME; details: probe bufuralol
Sequence of CYP2D6 (P10635 whole entry): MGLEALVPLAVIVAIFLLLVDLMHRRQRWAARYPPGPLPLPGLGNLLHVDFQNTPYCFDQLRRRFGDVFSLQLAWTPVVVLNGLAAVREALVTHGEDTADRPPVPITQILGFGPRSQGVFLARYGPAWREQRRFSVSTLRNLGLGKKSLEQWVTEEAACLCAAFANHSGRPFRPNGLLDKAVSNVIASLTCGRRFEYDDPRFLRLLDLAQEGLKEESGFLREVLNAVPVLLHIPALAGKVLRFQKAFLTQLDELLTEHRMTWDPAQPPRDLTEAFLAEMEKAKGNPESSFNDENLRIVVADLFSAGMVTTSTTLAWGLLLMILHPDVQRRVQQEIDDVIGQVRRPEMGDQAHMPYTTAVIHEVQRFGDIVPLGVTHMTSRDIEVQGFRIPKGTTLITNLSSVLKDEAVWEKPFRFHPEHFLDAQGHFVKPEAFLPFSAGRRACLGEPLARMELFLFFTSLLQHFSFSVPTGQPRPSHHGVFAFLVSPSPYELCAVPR

[5] = target: T4, Dual specificity protein kinase CLK4 (Homo sapiens, UniProt Q9HAZ1); assay: Inhibition of CLK4 (unknown origin) in presence of ATP
Target sequence in this assay (Q9HAZ1 whole entry): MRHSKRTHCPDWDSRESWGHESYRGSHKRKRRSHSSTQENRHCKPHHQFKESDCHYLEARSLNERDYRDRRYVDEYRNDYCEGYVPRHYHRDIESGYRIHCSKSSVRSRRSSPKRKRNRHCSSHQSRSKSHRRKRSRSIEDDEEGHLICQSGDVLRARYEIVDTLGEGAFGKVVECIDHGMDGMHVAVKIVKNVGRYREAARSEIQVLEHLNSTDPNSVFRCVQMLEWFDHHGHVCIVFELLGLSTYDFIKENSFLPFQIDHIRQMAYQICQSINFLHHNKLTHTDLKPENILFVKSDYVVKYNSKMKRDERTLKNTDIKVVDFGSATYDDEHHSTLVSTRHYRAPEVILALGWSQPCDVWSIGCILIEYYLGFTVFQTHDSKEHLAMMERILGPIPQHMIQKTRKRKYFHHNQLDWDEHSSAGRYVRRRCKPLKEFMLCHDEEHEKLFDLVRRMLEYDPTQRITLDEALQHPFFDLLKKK

CYP3A4 = CYP3A4 (Homo sapiens, UniProt P08684); assay: Inhibition of CYP3A4 (unknown origin) using midazolam as substrate at 10 uM by cocktail based assay relative to control; format: ADME; details: probe midazolam
Sequence of CYP3A4 (P08684 whole entry): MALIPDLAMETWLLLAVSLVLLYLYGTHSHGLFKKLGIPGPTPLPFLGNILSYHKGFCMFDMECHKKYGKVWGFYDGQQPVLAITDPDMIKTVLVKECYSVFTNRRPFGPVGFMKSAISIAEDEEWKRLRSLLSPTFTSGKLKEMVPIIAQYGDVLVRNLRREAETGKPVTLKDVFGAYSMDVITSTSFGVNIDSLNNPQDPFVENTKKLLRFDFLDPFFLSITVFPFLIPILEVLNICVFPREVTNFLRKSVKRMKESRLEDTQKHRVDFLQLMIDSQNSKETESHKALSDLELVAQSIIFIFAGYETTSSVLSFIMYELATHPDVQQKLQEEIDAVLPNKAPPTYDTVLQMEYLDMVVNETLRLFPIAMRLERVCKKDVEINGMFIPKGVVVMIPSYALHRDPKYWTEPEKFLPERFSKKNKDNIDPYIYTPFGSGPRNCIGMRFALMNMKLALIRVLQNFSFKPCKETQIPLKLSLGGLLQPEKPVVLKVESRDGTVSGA

[6] = target: Serine/threonine-protein kinase Nek3 (Homo sapiens, UniProt P51956); assay: Inhibition of NEK3 (unknown origin) in presence of ATP
Sequence of Serine/threonine-protein kinase Nek3 (P51956 whole entry): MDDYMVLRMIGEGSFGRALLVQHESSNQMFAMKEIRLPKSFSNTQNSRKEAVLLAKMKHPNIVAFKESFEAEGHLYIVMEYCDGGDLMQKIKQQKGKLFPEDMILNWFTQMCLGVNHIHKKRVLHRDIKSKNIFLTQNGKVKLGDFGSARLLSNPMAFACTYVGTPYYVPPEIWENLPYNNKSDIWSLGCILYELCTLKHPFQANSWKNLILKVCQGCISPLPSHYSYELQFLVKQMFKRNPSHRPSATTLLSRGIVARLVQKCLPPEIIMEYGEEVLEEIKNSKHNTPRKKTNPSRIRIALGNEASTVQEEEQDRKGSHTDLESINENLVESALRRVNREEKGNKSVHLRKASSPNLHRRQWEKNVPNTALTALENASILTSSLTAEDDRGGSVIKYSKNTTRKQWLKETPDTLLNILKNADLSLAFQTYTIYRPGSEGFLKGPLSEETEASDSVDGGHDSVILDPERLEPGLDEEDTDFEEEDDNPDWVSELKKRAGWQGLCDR

[7] = target: Serine/threonine-protein kinase 17B (Homo sapiens) (UniProt O94768); assay: Inhibition of STK17B (unknown origin) at 1 uM in presence of ATP relative to control
Sequence of Serine/threonine-protein kinase 17B (Homo sapiens) (O94768 whole entry): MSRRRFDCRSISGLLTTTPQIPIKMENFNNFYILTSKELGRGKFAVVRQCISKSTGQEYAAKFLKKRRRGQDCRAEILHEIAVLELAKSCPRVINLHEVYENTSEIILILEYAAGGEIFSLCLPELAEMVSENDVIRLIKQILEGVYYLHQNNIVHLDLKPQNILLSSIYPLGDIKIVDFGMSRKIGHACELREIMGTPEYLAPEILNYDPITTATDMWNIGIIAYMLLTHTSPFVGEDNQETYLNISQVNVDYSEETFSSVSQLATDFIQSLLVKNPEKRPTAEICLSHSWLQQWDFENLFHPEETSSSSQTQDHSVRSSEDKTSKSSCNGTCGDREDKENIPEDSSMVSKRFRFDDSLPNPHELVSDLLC

[8] = Cmax in C57BL/6 mouse at 10 mg/kg,po administration and measured upto 24 hrs; format: ADME, organism-based; details: in vivo
[9] = target: Serine/threonine-protein kinase Nek3 (Homo sapiens) (UniProt P51956); details: dose 100.0 nM
Sequence of Serine/threonine-protein kinase Nek3 (Homo sapiens) (P51956 whole entry): as the sequence (P51956 whole entry) above
Description: Inhibition of NEK3 (unknown origin) at 100 nM in presence of ATP relative to control

[10] = Tmax in C57BL/6 mouse at 10 mg/kg,po administration and measured upto 24 hrs; format: ADME, organism-based; details: in vivo
LIM domain kinase 1 [11] = target: T5, LIM domain kinase 1 (Homo sapiens, UniProt P53667); assay: Inhibition of LIMK1 (unknown origin) in presence of ATP
Target sequence in this assay (P53667 whole entry, the tested form may be a part): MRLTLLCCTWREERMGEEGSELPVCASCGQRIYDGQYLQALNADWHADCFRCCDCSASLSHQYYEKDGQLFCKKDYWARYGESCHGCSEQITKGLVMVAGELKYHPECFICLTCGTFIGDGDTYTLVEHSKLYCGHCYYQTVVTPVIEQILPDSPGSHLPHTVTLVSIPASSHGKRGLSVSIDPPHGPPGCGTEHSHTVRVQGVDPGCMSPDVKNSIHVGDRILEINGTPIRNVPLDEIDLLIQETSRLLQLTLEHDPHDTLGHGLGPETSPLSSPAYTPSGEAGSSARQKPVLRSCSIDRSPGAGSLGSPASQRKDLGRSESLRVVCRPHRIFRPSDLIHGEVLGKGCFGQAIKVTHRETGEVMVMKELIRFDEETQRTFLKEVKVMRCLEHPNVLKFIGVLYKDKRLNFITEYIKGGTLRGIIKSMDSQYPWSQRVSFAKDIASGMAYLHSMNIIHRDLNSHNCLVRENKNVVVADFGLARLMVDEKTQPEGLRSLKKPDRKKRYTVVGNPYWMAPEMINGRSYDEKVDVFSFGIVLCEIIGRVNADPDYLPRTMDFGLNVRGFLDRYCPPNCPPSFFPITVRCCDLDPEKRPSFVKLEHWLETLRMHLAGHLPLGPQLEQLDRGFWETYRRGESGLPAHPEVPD

[12] = target: Serine/threonine-protein kinase Nek5 (Homo sapiens) (UniProt Q6P3R8); details: dose 100.0 nM
Sequence of Serine/threonine-protein kinase Nek5 (Homo sapiens) (Q6P3R8 whole entry): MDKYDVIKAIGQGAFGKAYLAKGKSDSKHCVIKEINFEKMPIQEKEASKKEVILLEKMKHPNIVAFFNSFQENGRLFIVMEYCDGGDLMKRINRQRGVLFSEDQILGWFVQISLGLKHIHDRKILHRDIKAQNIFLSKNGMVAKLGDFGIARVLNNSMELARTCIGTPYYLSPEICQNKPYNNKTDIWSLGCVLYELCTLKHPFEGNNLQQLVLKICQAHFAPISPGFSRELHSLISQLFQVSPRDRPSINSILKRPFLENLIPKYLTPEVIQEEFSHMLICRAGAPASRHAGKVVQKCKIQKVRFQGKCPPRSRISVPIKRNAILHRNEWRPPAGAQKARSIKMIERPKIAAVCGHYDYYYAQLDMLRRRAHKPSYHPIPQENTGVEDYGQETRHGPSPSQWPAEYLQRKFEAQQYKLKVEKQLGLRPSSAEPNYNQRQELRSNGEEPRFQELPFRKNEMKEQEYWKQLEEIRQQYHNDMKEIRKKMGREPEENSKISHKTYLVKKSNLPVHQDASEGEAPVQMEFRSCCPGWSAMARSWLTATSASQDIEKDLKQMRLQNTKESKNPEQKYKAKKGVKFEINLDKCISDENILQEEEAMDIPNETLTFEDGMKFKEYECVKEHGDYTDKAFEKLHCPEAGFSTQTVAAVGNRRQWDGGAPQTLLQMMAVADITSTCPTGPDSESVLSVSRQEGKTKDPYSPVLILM
Description: Inhibition of NEK5 (unknown origin) at 100 nM in presence of ATP relative to control

[13] = AUClast in C57BL/6 mouse at 10 mg/kg,po administration and measured upto 24 hrs; format: ADME, organism-based; details: in vivo
Kasumi 1 = assay: Antiproliferative activity against human Kasumi 1 cells assessed as inhibition of cell growth incubated for 72 hrs by Cell Titer-Glo luminescence assay; format: functional, cell-based; details: Kasumi 1, 72 h
[14] = Antiproliferative activity against human HEK293T cells assessed as inhibition of cell growth incubated for 72 hrs by Cell Titer-Glo luminescence assay; format: toxicity, cell-based, HEK-293T
[15] = target: Serine/threonine-protein kinase Nek5 (Homo sapiens, UniProt Q6P3R8); assay: Inhibition of NEK5 (unknown origin) in presence of ATP
Sequence of Serine/threonine-protein kinase Nek5 (Q6P3R8 whole entry): as above

[16] = Half life in C57BL/6 mouse at 10 mg/kg,po administration and measured upto 24 hrs; format: ADME, organism-based; details: in vivo
LIM domain kinase 1 [17] = target: T5, LIM domain kinase 1; details: dose 100.0 nM
Target sequence in this assay (P53667 whole entry, looked up, the tested form may be a part): as the sequence (P53667 whole entry, the tested form may be a part) above
Description: Inhibition of LIMK1 (unknown origin) at 100 nM in presence of ATP relative to control

HEL = assay: Antiproliferative activity against human HEL cells assessed as inhibition of cell growth incubated for 72 hrs by Cell Titer-Glo luminescence assay; format: functional, cell-based
MOLM-13 = assay: Antiproliferative activity against human MOLM-13 cells assessed as inhibition of cell growth incubated for 72 hrs by Cell Titer-Glo luminescence assay; format: functional, cell-based; details: MOLM-13, 72 h
[18] = target: Serine/threonine-protein kinase TBK1 (Homo sapiens, UniProt Q9UHD2); assay: Inhibition of TBK1 (unknown origin) in presence of ATP
[19] = target: Myosin light chain kinase family member 4 (Homo sapiens) (UniProt Q86YV6); details: dose 100.0 nM
Description: Inhibition of MYLK4 (unknown origin) at 100 nM in presence of ATP relative to control

[20] = target: Serine/threonine-protein kinase TBK1 (Homo sapiens) (UniProt Q9UHD2); details: dose 100.0 nM
Description: Inhibition of TBK1 (unknown origin) at 100 nM in presence of ATP relative to control

[21] = target: T4, Dual specificity protein kinase CLK4; details: dose 100.0 nM
Target sequence in this assay (Q9HAZ1 whole entry, looked up): as the sequence (Q9HAZ1 whole entry) above
Description: Inhibition of CLK4 (unknown origin) at 100 nM in presence of ATP relative to control

[22] = target: Inhibitor of nuclear factor kappa-B kinase subunit epsilon (Homo sapiens) (UniProt Q14164); assay: Inhibition of IKKepsilon (unknown origin) at 100 nM in presence of ATP relative to control
[23] = target: Serine/threonine-protein kinase 17A (Homo sapiens) (UniProt Q9UEE5); details: dose 100.0 nM
Description: Inhibition of STK17A (unknown origin) at 100 nM in presence of ATP relative to control

[24] = target: Dual specificity protein kinase CLK2 (Homo sapiens) (UniProt P49760); assay: Inhibition of CLK2 (unknown origin) at 100 nM in presence of ATP relative to control
Sequence of Dual specificity protein kinase CLK2 (Homo sapiens) (P49760 whole entry, looked up): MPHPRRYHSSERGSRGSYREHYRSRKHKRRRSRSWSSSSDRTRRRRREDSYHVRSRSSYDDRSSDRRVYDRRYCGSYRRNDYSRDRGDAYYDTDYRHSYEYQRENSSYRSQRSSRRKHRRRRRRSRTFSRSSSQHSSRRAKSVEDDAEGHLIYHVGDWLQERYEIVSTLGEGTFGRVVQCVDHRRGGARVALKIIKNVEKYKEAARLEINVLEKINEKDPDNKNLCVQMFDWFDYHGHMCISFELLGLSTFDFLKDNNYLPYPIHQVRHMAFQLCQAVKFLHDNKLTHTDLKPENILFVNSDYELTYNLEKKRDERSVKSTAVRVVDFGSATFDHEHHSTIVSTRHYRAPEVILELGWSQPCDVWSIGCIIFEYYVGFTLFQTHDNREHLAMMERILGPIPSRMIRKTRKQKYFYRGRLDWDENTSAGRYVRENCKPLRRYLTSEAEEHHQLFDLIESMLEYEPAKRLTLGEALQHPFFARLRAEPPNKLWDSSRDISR

SMILES | half-life [1] [min] | half-life [2] [min] | inhibition at 10 µM (CYP1A2) [%] | inhibition at 10 µM (CYP2C9) [%] | IC50 [3] [nM] | IC50 [4] [nM] | inhibition at 10 µM (CYP2D6) [%] | IC50 [5] [nM] | inhibition at 10 µM (CYP3A4) [%] | further results
CC(C)NC(=O)c1ccc(Nc2nccc(-c3ccc4nc(N5CCCC5)ncc4c3)n2)cn1 | 92 | 61 | 22 | 39 | 85 | 12 | 16 | > 10000 | 25 | 
c1cc(-c2ccc3nc(N4CCOCC4)ncc3c2)nc(Nc2cnn(C3CCNCC3)c2)n1 | 62 | 84 | 11 | < 10 | 6 | 19 | < 10 |  | < 10 | 
c1cc(-c2ccc3nc(N4CCCC4)ncc3c2)nc(Nc2ccc(N3CCOCC3)cc2)n1 | 35 | 69 | < 10 | 14 | 46 | 43 | < 10 |  | 22 | 
CN1CCN(c2ccc(Nc3nccc(-c4ccc5nc(N6CCCC6)ncc5c4)n3)cc2)CC1 |  |  |  |  |  | 51 |  |  |  | 
CC(C)NC(=O)c1ccc(Nc2nccc(-c3ccc4nc(N5CCOCC5)ncc4c3)n2)cc1 | 59 | 16 | 12 | < 10 | 68 | 20 | 1 |  | < 10 | 
COC(=O)N1CCC(c2ccc(Nc3nccc(-c4ccc5nc(N6CCCC6)ncc5c4)n3)cn2)CC1 |  |  |  |  |  | 66 |  |  |  | 
CC(C)NC(=O)c1ccc(Nc2nccc(-c3ccc4nc(N5CCCC5)ncc4c3)n2)cc1 | 37 | 45 | < 10 | 14 | 440 | 23 | 3 | > 10000 | 16 | IC50 [6]: 245 nM; inhibition [7]: 98%; Cmax [8]: 1000 nM; inhibition [9]: 40%; Tmax [10]: 60 min; IC50 (LIM domain kinase 1 [11]): 650 nM; inhibition [12]: 45%; AUC(0-t) at 24 h [13]: 4.2 µM·h; IC50 (Kasumi 1): 7670 nM; IC50 at 72 h [14]: 99500 nM; IC50 [15]: 132 nM; half-life [16]: 162 min; inhibition (LIM domain kinase 1 [17]): 46%; IC50 (HEL): 2310 nM; IC50 (MOLM-13): 920 nM
CC(C)NC(=O)c1ccc(Nc2ncc(F)c(-c3ccc4nc(N5CCCC5)ncc4c3)n2)cc1 | 22 | 44 | < 10 | < 10 | > 1000 | 25 | < 10 | > 10000 | < 10 | 
c1cc(-c2ccc3nc(N4CCCC4)ncc3c2)nc(Nc2ccc(OC3CCNCC3)cc2)n1 |  |  |  |  |  | > 10000 |  |  |  | 
OCCN1C[C@@H]2C[C@H]1CN2c1ccc(Nc2ncc(F)c(-c3ccc4nc(N5CCCC5)ncc4c3)n2)cn1 |  |  |  |  | 13 | 48 |  | 160 |  | 
c1cc(-c2ccc3nc(N4CCCC4)ncc3c2)nc(Nc2ccc(N3CCNCC3)nc2)n1 |  |  |  |  | 2 | 18 |  | 124 |  | IC50 [18]: 135 nM; inhibition [19]: 95%; IC50 (Kasumi 1): 1190 nM; inhibition [20]: 45%; IC50 at 72 h [14]: 11700 nM; inhibition [21]: 50%; inhibition [22]: 45%; IC50 (HEL): 1930 nM; inhibition [23]: 75%; inhibition [24]: 50%; IC50 (MOLM-13): 1340 nM
c1cc(-c2ccc3nc(N4CCOCC4)ncc3c2)nc(Nc2ccc(N3CCNCC3)cc2)n1 | 16 | 12 | < 10 | 7 | 4 | 20 | < 10 |  | 11 | 
OCCN1CCC(c2ccc(Nc3nccc(-c4ccc5nc(N6C[C@@H]7C[C@H]6CO7)ncc5c4)n3)cn2)CC1 | 69 | 20 | < 10 | < 10 | 40 | 17 | < 10 | 1120 | < 10 | 
O=C(NC1CCNCC1)c1ccc(Nc2nccc(-c3ccc4nc(N5CCCC5)ncc4c3)n2)cc1 |  |  |  |  |  | 316 |  |  |  | 
OCCN1CCC(n2cc(Nc3ncc(F)c(-c4ccc5nc(N6CCOCC6)ncc5c4)n3)cn2)CC1 | 83 | 97 | < 10 | < 10 | 17 | 21 | < 10 |  | < 10 | IC50 (Kasumi 1): 760 nM; IC50 at 72 h [14]: 16200 nM; IC50 (HEL): 2960 nM; IC50 (MOLM-13): 1960 nM
c1cc(-c2ccc3nc(N4CCCC4)ncc3c2)nc(Nc2ccc(N3CCNCC3)cc2)n1 | 9 | > 100 | 7 | 23 | 27 | 55 | 2 |  | 22 | 
c1cc(-c2ccc3nc(N4CCCC4)ncc3c2)nc(Nc2cnn(C3CCNCC3)c2)n1 | > 100 | 23 | 52 | < 10 | 6 | 20 | 5 |  | < 10 | 
CC(C)NC(=O)c1cccc(Nc2nccc(-c3ccc4nc(N5CCCC5)ncc4c3)n2)c1 |  |  |  |  |  | 144 |  |  |  | 
COC(=O)N1CCC(c2ccc(Nc3nccc(-c4ccc5nc(N6C[C@@H]7C[C@H]6CO7)ncc5c4)n3)cn2)CC1 |  |  |  |  |  | 29 |  |  |  | 
